From publication PMC5207038 (ACS chemical biology, 2016)
“Also recorded” adds a separate entry of the source. Values belong to the molecule of their own block, whether it stands above or below them.

Tests used:
A2BAR = target: T1, A2BAR (Homo sapiens, UniProt P29275); assay: Functional assay for the A2BAR in CHO cells; format: cell-based; settings: for functional activity at A2BAR: inactive refers to 10 µM
T1 sequence (P29275 1-332): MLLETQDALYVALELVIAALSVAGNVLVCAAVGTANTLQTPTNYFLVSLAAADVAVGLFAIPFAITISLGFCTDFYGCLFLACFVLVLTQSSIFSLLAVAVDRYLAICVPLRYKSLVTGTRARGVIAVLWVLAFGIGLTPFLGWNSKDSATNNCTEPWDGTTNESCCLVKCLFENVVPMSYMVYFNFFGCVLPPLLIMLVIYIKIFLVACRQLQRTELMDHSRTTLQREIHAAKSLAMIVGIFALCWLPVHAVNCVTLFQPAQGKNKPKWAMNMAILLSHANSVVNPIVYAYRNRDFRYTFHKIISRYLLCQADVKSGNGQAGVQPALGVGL

A1AR = target: T2, A1AR (Homo sapiens, UniProt P30542); settings: cAMP assay
T2 sequence (P30542 1-326): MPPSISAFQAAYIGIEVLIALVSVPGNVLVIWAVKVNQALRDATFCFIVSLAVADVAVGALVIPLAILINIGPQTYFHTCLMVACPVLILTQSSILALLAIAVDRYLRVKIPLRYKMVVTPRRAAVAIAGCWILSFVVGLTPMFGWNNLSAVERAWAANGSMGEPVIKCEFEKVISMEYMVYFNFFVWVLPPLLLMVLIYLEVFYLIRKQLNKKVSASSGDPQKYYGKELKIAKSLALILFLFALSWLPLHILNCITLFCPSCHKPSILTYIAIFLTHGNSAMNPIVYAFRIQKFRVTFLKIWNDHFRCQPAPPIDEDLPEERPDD

hA2AAR = hA2AAR (Homo sapiens, UniProt P29274); assay: Radioligand binding at human A2AAR, membranes of HEK293 cells; settings: for inhibition at 10 µM: read-out: % inhibition at 10 µM A2AAR; for % inhibition at 30 µM A2AAR: radioligand displacement at 30 µM, bases; for inhibition at 30 µM: read-out: % inhibition at 30 µM A2AAR
hA2AAR, sequence (P29274 whole entry): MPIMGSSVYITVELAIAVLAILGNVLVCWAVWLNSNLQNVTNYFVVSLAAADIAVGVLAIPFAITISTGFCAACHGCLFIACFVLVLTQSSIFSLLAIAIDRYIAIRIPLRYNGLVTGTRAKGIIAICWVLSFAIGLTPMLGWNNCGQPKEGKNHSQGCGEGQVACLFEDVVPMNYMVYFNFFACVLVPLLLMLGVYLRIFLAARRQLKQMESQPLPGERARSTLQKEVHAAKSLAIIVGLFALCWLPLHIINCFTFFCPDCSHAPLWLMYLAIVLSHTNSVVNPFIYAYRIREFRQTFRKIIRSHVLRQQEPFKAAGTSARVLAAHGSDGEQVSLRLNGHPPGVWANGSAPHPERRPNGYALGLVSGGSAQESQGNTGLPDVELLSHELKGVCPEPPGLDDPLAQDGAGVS

A3AR = target: T3, A3AR (Homo sapiens, UniProt P0DMS8)
T3 sequence (P0DMS8 1-318): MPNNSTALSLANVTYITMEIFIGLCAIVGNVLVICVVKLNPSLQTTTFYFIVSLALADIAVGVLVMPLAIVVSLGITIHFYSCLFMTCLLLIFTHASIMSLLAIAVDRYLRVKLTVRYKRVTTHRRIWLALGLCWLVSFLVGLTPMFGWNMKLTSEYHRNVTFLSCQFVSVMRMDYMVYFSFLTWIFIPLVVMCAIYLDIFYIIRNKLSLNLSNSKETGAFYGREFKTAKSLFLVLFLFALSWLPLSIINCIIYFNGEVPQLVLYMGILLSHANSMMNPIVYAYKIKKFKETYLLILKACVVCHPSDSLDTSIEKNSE

hA1AR = target: T4, hA1AR (Homo sapiens, UniProt P30542); assay: Radioligand binding at human A1AR, membranes of CHO cells; settings: for inhibition at 10 µM: read-out: % inhibition at 10 µM A1AR; for % inhibition at 30 µM A1AR: radioligand displacement at 30 µM, bases; for inhibition at 30 µM: read-out: % inhibition at 30 µM A1AR
T4 sequence (P30542 1-326): T2 sequence (P30542 1-326)

hA3AR = target: T5, hA3AR (Homo sapiens, UniProt P0DMS8); assay: Radioligand binding at human A3AR, membranes of CHO cells; settings: for % inhibition at 30 µM A3AR: radioligand displacement at 30 µM, bases; for inhibition at 30 µM: read-out: % inhibition at 30 µM A3AR
T5 sequence (P0DMS8 1-318): T3 sequence (P0DMS8 1-318)

SMILES: Nc1ccnc2c1ncn2[C@@H]1O[C@H](CO)[C@@H](O)[C@H]1O [Compound 5, 1-deazaadenosine]
EC50 (A2BAR): 1.5 µM
functional activity at A2BAR (A2BAR): full agonists

SMILES: Nc1nccc2c1ncn2[C@@H]1O[C@H](CO)[C@@H](O)[C@H]1O [Compound 6, 3-deazaadenosine]
functional activity at A1AR (A1AR): no influence on cAMP levels was detected; also recorded: lost the ability to activate the receptor
functional activity at A2BAR (A2BAR): inactive

SMILES: Nc1cccc2c1ncn2[C@@H]1O[C@H](CO)[C@@H](O)[C@H]1O [Compound 7, 1,3-dideazaadenosine]
% inhibition at 10 µM A2AAR (hA2AAR; radioligand displacement at 10 µM, mean ± standard error, three experiments): completely lost affinity
inhibition at 10 µM (hA2AAR): 5 ± 2%
functional activity at A3AR (A3AR; cAMP assay, 10 µM for compound 11): strongly selective agonist
inhibition at 10 µM (hA1AR): 15 ± 2%

SMILES: Nc1nc(=O)[nH]c2c1ncn2[C@@H]1O[C@H](CO)[C@@H](O)[C@H]1O [Compound 9, isoguanosine]
EC50 (A2BAR): 3.1 µM
functional activity at A2BAR (A2BAR): full agonists

SMILES: Nc1ncn([C@@H]2O[C@H](CO)[C@@H](O)[C@H]2O)c(=O)n1 [Compound 12, 5-azacytidine]
inhibition at 10 µM (hA2AAR): 34 ± 2%
Emax (A3AR; CHO, read-out: maximal efficacy A3AR): ~30%

SMILES: Cc1cn([C@@H]2O[C@H](CO)[C@@H](O)[C@H]2O)c(=O)nc1N [Compound 13, 5-methylcytidine]
inhibition at 10 µM (hA2AAR): 13 ± 9%
inhibition at 10 µM (hA1AR): 10 ± 3%

Other lines, results leading:

% inhibition at 30 µM A2AAR (hA2AAR): No significant displacement
inhibition at 30 µM (hA2AAR): 19 ± 8%
% inhibition at 30 µM A1AR (hA1AR): No significant displacement
inhibition at 30 µM (hA1AR): 19 ± 8%
% inhibition at 30 µM A3AR (hA3AR): No significant displacement
SMILES: Nc1ncnc2[nH]cnc12 [Compound 26, adenine]

inhibition at 30 µM (hA2AAR): 40 ± 8%
inhibition at 30 µM (hA3AR): 36 ± 6%
SMILES: Cn1c(=O)[nH]c2nc[nH]c2c1=O [Compound 28, 1-methylxanthine]

% inhibition at 30 µM A2AAR (hA2AAR): No significant displacement
% inhibition at 30 µM A1AR (hA1AR): No significant displacement
inhibition at 30 µM (hA1AR): 11 ± 3%
% inhibition at 30 µM A3AR (hA3AR): No significant displacement
inhibition at 30 µM (hA3AR): 19 ± 5%
SMILES: Nc1nc[nH]c(=O)c1Cl [Compound 29, 6-amino-5-chloropyrimidin-4(3H)-one]
